The subject of the first test is 429239-143-T-J1-PDC complex spheroid viability. The experiment in a line: Anticancer human tumor 429239-143-T-J1-PDC patient-derived small cell lung carcinoma cell line growth inhibition [POLQ]. To be noted: second compound 3.16 µM; first compound 0.0316 µM; hits give low values. Summed up: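 Growth inhibition in 3D: complex spheroids (tumor PDC, HUVEC, MSC) treated with POLQ inhibitor combinations; where Cmax unknown, highest tested concentration 10 microM, except SN-38 at 1 microM.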
In general, viability, T/C refers to the ratio of treated to control. As for `CNCc1ccc(-c2[nH]c3cc(F)cc4c3c2CCNC4=O)cc1` + COC1C(OC(N)=O)C(O)C(Oc2ccc3c(O)c(NC(=O)c4ccc(O)c(CC=C(C)C)c4)c(=O)oc3c2C)OC1(C)C, the viability, T/C is 87.4%.

For `O=C(c1cc(Cc2n[nH]c(=O)c3ccccc23)ccc1F)N1CCN(C(=O)C2CC2)CC1` + COC1C(OC(N)=O)C(O)C(Oc2ccc3c(O)c(NC(=O)c4ccc(O)c(CC=C(C)C)c4)c(=O)oc3c2C)OC1(C)C, the viability, T/C was 97.3%.

The test is the same for the next values; noted with them: second compound 3.16 µM; first compound 0.1 µM; hits give low values.
Turning to `C=CCn1c(=O)c2cnc(Nc3ccc(N4CCN(C)CC4)cc3)nc2n1-c1cccc(C(C)(C)O)n1` + COC1C(OC(N)=O)C(O)C(Oc2ccc3c(O)c(NC(=O)c4ccc(O)c(CC=C(C)C)c4)c(=O)oc3c2C)OC1(C)C, the viability, T/C was 96.3%.

Consider `CCc1c2c(nc3ccc(O)cc13)-c1cc3c(c(=O)n1C2)COC(=O)[C@]3(O)CC` + COC1C(OC(N)=O)C(O)C(Oc2ccc3c(O)c(NC(=O)c4ccc(O)c(CC=C(C)C)c4)c(=O)oc3c2C)OC1(C)C, for which the viability, T/C is 18.5%.

On to `CNCc1ccc(-c2[nH]c3cc(F)cc4c3c2CCNC4=O)cc1` + COC1C(OC(N)=O)C(O)C(Oc2ccc3c(O)c(NC(=O)c4ccc(O)c(CC=C(C)C)c4)c(=O)oc3c2C)OC1(C)C, for which the viability, T/C is 88.3%.

Take `O=C(c1cc(Cc2n[nH]c(=O)c3ccccc23)ccc1F)N1CCN(C(=O)C2CC2)CC1` + COC1C(OC(N)=O)C(O)C(Oc2ccc3c(O)c(NC(=O)c4ccc(O)c(CC=C(C)C)c4)c(=O)oc3c2C)OC1(C)C: the viability, T/C was 86.5%.

Still in this test, the particulars now being: second compound 3.16 µM; first compound 0.316 µM; hits give low values.
For the molecule `C=CCn1c(=O)c2cnc(Nc3ccc(N4CCN(C)CC4)cc3)nc2n1-c1cccc(C(C)(C)O)n1` + COC1C(OC(N)=O)C(O)C(Oc2ccc3c(O)c(NC(=O)c4ccc(O)c(CC=C(C)C)c4)c(=O)oc3c2C)OC1(C)C, the viability, T/C was 97.1%.

As to `CCc1c2c(nc3ccc(O)cc13)-c1cc3c(c(=O)n1C2)COC(=O)[C@]3(O)CC` + COC1C(OC(N)=O)C(O)C(Oc2ccc3c(O)c(NC(=O)c4ccc(O)c(CC=C(C)C)c4)c(=O)oc3c2C)OC1(C)C, the viability, T/C is 15.3%.

For `CNCc1ccc(-c2[nH]c3cc(F)cc4c3c2CCNC4=O)cc1` + COC1C(OC(N)=O)C(O)C(Oc2ccc3c(O)c(NC(=O)c4ccc(O)c(CC=C(C)C)c4)c(=O)oc3c2C)OC1(C)C, the viability, T/C was 87.1%.

Take `O=C(c1cc(Cc2n[nH]c(=O)c3ccccc23)ccc1F)N1CCN(C(=O)C2CC2)CC1` + COC1C(OC(N)=O)C(O)C(Oc2ccc3c(O)c(NC(=O)c4ccc(O)c(CC=C(C)C)c4)c(=O)oc3c2C)OC1(C)C: the viability, T/C was 73.8%.

The same test, now with this note: second compound 3.16 µM; first compound 1 µM; hits give low values.
For `C=CCn1c(=O)c2cnc(Nc3ccc(N4CCN(C)CC4)cc3)nc2n1-c1cccc(C(C)(C)O)n1` + COC1C(OC(N)=O)C(O)C(Oc2ccc3c(O)c(NC(=O)c4ccc(O)c(CC=C(C)C)c4)c(=O)oc3c2C)OC1(C)C, the viability, T/C was 20%.

Take `CCc1c2c(nc3ccc(O)cc13)-c1cc3c(c(=O)n1C2)COC(=O)[C@]3(O)CC` + COC1C(OC(N)=O)C(O)C(Oc2ccc3c(O)c(NC(=O)c4ccc(O)c(CC=C(C)C)c4)c(=O)oc3c2C)OC1(C)C: the viability, T/C is 5.6%.

For `CNCc1ccc(-c2[nH]c3cc(F)cc4c3c2CCNC4=O)cc1` + COC1C(OC(N)=O)C(O)C(Oc2ccc3c(O)c(NC(=O)c4ccc(O)c(CC=C(C)C)c4)c(=O)oc3c2C)OC1(C)C, the viability, T/C was 59.8%.

`O=C(c1cc(Cc2n[nH]c(=O)c3ccccc23)ccc1F)N1CCN(C(=O)C2CC2)CC1` + COC1C(OC(N)=O)C(O)C(Oc2ccc3c(O)c(NC(=O)c4ccc(O)c(CC=C(C)C)c4)c(=O)oc3c2C)OC1(C)C: the viability, T/C is 71.6%.

The test is the same for the next values; noted with them: second compound 3.16 µM; first compound 3.16 µM; hits give low values.
Consider `CNCc1ccc(-c2[nH]c3cc(F)cc4c3c2CCNC4=O)cc1` + COC1C(OC(N)=O)C(O)C(Oc2ccc3c(O)c(NC(=O)c4ccc(O)c(CC=C(C)C)c4)c(=O)oc3c2C)OC1(C)C, for which the viability, T/C is 40.3%.

Turning to `O=C(c1cc(Cc2n[nH]c(=O)c3ccccc23)ccc1F)N1CCN(C(=O)C2CC2)CC1` + COC1C(OC(N)=O)C(O)C(Oc2ccc3c(O)c(NC(=O)c4ccc(O)c(CC=C(C)C)c4)c(=O)oc3c2C)OC1(C)C, the viability, T/C was 29.2%.

Staying with this test, now noted: second compound 3.16 µM; first compound 10 µM; hits give low values.
As to `CNCc1ccc(-c2[nH]c3cc(F)cc4c3c2CCNC4=O)cc1` + COC1C(OC(N)=O)C(O)C(Oc2ccc3c(O)c(NC(=O)c4ccc(O)c(CC=C(C)C)c4)c(=O)oc3c2C)OC1(C)C, the viability, T/C is 20%.

Regarding `O=C(c1cc(Cc2n[nH]c(=O)c3ccccc23)ccc1F)N1CCN(C(=O)C2CC2)CC1` + COC1C(OC(N)=O)C(O)C(Oc2ccc3c(O)c(NC(=O)c4ccc(O)c(CC=C(C)C)c4)c(=O)oc3c2C)OC1(C)C, the viability, T/C is 19%.

The test is the same for the next values; noted with them: second compound 10 µM; first compound 0.00316 µM; hits give low values.
As to `C=CCn1c(=O)c2cnc(Nc3ccc(N4CCN(C)CC4)cc3)nc2n1-c1cccc(C(C)(C)O)n1` + COC1C(OC(N)=O)C(O)C(Oc2ccc3c(O)c(NC(=O)c4ccc(O)c(CC=C(C)C)c4)c(=O)oc3c2C)OC1(C)C, the viability, T/C is 91.7%.

On to `CCc1c2c(nc3ccc(O)cc13)-c1cc3c(c(=O)n1C2)COC(=O)[C@]3(O)CC` + COC1C(OC(N)=O)C(O)C(Oc2ccc3c(O)c(NC(=O)c4ccc(O)c(CC=C(C)C)c4)c(=O)oc3c2C)OC1(C)C, for which the viability, T/C was 18.1%.

Staying with this test, now noted: second compound 10 µM; first compound 0.01 µM; hits give low values.
Turning to `C=CCn1c(=O)c2cnc(Nc3ccc(N4CCN(C)CC4)cc3)nc2n1-c1cccc(C(C)(C)O)n1` + COC1C(OC(N)=O)C(O)C(Oc2ccc3c(O)c(NC(=O)c4ccc(O)c(CC=C(C)C)c4)c(=O)oc3c2C)OC1(C)C, the viability, T/C is 83.2%.

As to `CCc1c2c(nc3ccc(O)cc13)-c1cc3c(c(=O)n1C2)COC(=O)[C@]3(O)CC` + COC1C(OC(N)=O)C(O)C(Oc2ccc3c(O)c(NC(=O)c4ccc(O)c(CC=C(C)C)c4)c(=O)oc3c2C)OC1(C)C, the viability, T/C is 18.9%.

The test is the same for the next values; noted with them: second compound 10 µM; first compound 0.0316 µM; hits give low values.
Take `C=CCn1c(=O)c2cnc(Nc3ccc(N4CCN(C)CC4)cc3)nc2n1-c1cccc(C(C)(C)O)n1` + COC1C(OC(N)=O)C(O)C(Oc2ccc3c(O)c(NC(=O)c4ccc(O)c(CC=C(C)C)c4)c(=O)oc3c2C)OC1(C)C: the viability, T/C was 85.1%.

Consider `CCc1c2c(nc3ccc(O)cc13)-c1cc3c(c(=O)n1C2)COC(=O)[C@]3(O)CC` + COC1C(OC(N)=O)C(O)C(Oc2ccc3c(O)c(NC(=O)c4ccc(O)c(CC=C(C)C)c4)c(=O)oc3c2C)OC1(C)C, for which the viability, T/C was 18.2%.

For `CNCc1ccc(-c2[nH]c3cc(F)cc4c3c2CCNC4=O)cc1` + COC1C(OC(N)=O)C(O)C(Oc2ccc3c(O)c(NC(=O)c4ccc(O)c(CC=C(C)C)c4)c(=O)oc3c2C)OC1(C)C, the viability, T/C is 75.3%.

As for `O=C(c1cc(Cc2n[nH]c(=O)c3ccccc23)ccc1F)N1CCN(C(=O)C2CC2)CC1` + COC1C(OC(N)=O)C(O)C(Oc2ccc3c(O)c(NC(=O)c4ccc(O)c(CC=C(C)C)c4)c(=O)oc3c2C)OC1(C)C, the viability, T/C was 106%.

Still in this test, the particulars now being: second compound 10 µM; first compound 0.1 µM; hits give low values.
For `C=CCn1c(=O)c2cnc(Nc3ccc(N4CCN(C)CC4)cc3)nc2n1-c1cccc(C(C)(C)O)n1` + COC1C(OC(N)=O)C(O)C(Oc2ccc3c(O)c(NC(=O)c4ccc(O)c(CC=C(C)C)c4)c(=O)oc3c2C)OC1(C)C, the viability, T/C was 83.7%.

`CCc1c2c(nc3ccc(O)cc13)-c1cc3c(c(=O)n1C2)COC(=O)[C@]3(O)CC` + COC1C(OC(N)=O)C(O)C(Oc2ccc3c(O)c(NC(=O)c4ccc(O)c(CC=C(C)C)c4)c(=O)oc3c2C)OC1(C)C: the viability, T/C is 15.8%.

For the molecule `CNCc1ccc(-c2[nH]c3cc(F)cc4c3c2CCNC4=O)cc1` + COC1C(OC(N)=O)C(O)C(Oc2ccc3c(O)c(NC(=O)c4ccc(O)c(CC=C(C)C)c4)c(=O)oc3c2C)OC1(C)C, the viability, T/C is 81.3%.

For `O=C(c1cc(Cc2n[nH]c(=O)c3ccccc23)ccc1F)N1CCN(C(=O)C2CC2)CC1` + COC1C(OC(N)=O)C(O)C(Oc2ccc3c(O)c(NC(=O)c4ccc(O)c(CC=C(C)C)c4)c(=O)oc3c2C)OC1(C)C, the viability, T/C is 99.6%.

The test is the same for the next values; noted with them: second compound 10 µM; first compound 0.316 µM; hits give low values.
Consider `C=CCn1c(=O)c2cnc(Nc3ccc(N4CCN(C)CC4)cc3)nc2n1-c1cccc(C(C)(C)O)n1` + COC1C(OC(N)=O)C(O)C(Oc2ccc3c(O)c(NC(=O)c4ccc(O)c(CC=C(C)C)c4)c(=O)oc3c2C)OC1(C)C, for which the viability, T/C is 84%.

`CCc1c2c(nc3ccc(O)cc13)-c1cc3c(c(=O)n1C2)COC(=O)[C@]3(O)CC` + COC1C(OC(N)=O)C(O)C(Oc2ccc3c(O)c(NC(=O)c4ccc(O)c(CC=C(C)C)c4)c(=O)oc3c2C)OC1(C)C: the viability, T/C was 14.8%.

With `CNCc1ccc(-c2[nH]c3cc(F)cc4c3c2CCNC4=O)cc1` + COC1C(OC(N)=O)C(O)C(Oc2ccc3c(O)c(NC(=O)c4ccc(O)c(CC=C(C)C)c4)c(=O)oc3c2C)OC1(C)C, the viability, T/C was 72.2%.

For `O=C(c1cc(Cc2n[nH]c(=O)c3ccccc23)ccc1F)N1CCN(C(=O)C2CC2)CC1` + COC1C(OC(N)=O)C(O)C(Oc2ccc3c(O)c(NC(=O)c4ccc(O)c(CC=C(C)C)c4)c(=O)oc3c2C)OC1(C)C, the viability, T/C was 86.9%.

Still in this test, the particulars now being: second compound 10 µM; first compound 1 µM; hits give low values.
As to `C=CCn1c(=O)c2cnc(Nc3ccc(N4CCN(C)CC4)cc3)nc2n1-c1cccc(C(C)(C)O)n1` + COC1C(OC(N)=O)C(O)C(Oc2ccc3c(O)c(NC(=O)c4ccc(O)c(CC=C(C)C)c4)c(=O)oc3c2C)OC1(C)C, the viability, T/C is 22.8%.

For the molecule `CCc1c2c(nc3ccc(O)cc13)-c1cc3c(c(=O)n1C2)COC(=O)[C@]3(O)CC` + COC1C(OC(N)=O)C(O)C(Oc2ccc3c(O)c(NC(=O)c4ccc(O)c(CC=C(C)C)c4)c(=O)oc3c2C)OC1(C)C, the viability, T/C is 5.55%.

Regarding `CNCc1ccc(-c2[nH]c3cc(F)cc4c3c2CCNC4=O)cc1` + COC1C(OC(N)=O)C(O)C(Oc2ccc3c(O)c(NC(=O)c4ccc(O)c(CC=C(C)C)c4)c(=O)oc3c2C)OC1(C)C, the viability, T/C was 55.1%.

On to `O=C(c1cc(Cc2n[nH]c(=O)c3ccccc23)ccc1F)N1CCN(C(=O)C2CC2)CC1` + COC1C(OC(N)=O)C(O)C(Oc2ccc3c(O)c(NC(=O)c4ccc(O)c(CC=C(C)C)c4)c(=O)oc3c2C)OC1(C)C, for which the viability, T/C was 60.7%.

Still in this test, the particulars now being: second compound 10 µM; first compound 3.16 µM; hits give low values.
As for `CNCc1ccc(-c2[nH]c3cc(F)cc4c3c2CCNC4=O)cc1` + COC1C(OC(N)=O)C(O)C(Oc2ccc3c(O)c(NC(=O)c4ccc(O)c(CC=C(C)C)c4)c(=O)oc3c2C)OC1(C)C, the viability, T/C is 39.8%.

On to `O=C(c1cc(Cc2n[nH]c(=O)c3ccccc23)ccc1F)N1CCN(C(=O)C2CC2)CC1` + COC1C(OC(N)=O)C(O)C(Oc2ccc3c(O)c(NC(=O)c4ccc(O)c(CC=C(C)C)c4)c(=O)oc3c2C)OC1(C)C, for which the viability, T/C is 24.8%.

The same test, now with this note: second compound 10 µM; first compound 10 µM; hits give low values.
Turning to `CNCc1ccc(-c2[nH]c3cc(F)cc4c3c2CCNC4=O)cc1` + COC1C(OC(N)=O)C(O)C(Oc2ccc3c(O)c(NC(=O)c4ccc(O)c(CC=C(C)C)c4)c(=O)oc3c2C)OC1(C)C, the viability, T/C is 19%.

For `O=C(c1cc(Cc2n[nH]c(=O)c3ccccc23)ccc1F)N1CCN(C(=O)C2CC2)CC1` + COC1C(OC(N)=O)C(O)C(Oc2ccc3c(O)c(NC(=O)c4ccc(O)c(CC=C(C)C)c4)c(=O)oc3c2C)OC1(C)C, the viability, T/C was 16.4%.

Source of the values: PubChem BioAssay AID1963845 (Molecular Pharmacology Branch, DTP, NCI, 2024).
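Further: luminescence signal used as surrogate measure of viable cells; spheroids exposed to compounds for seven days before readout; 100% = DMSO vehicle control viability as luminescence relative to vehicle.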
